Assay [1] has as its system red blood cell GSH. As to the kind of experiment: Red blood cell GSH concentration and ASR in nondiabetic elderly humans after 2-week supplementation (Example 4). In kind it is in vivo. The note with it: after 2-week oral supplementation. The procedure:
(§1) Eight nondiabetic elderly humans were studied in the basal state, and after 2-week oral supplementation with either n-acetylcysteine alone, glycine alone, or both supplements, with a 2-week washout period in-between. […] Plasma lipid peroxides were measured as a marker of ongoing damage due to oxidative stress. Eight younger adult subjects were also recruited as controls.

Assay [2] relates to Plasma lipid peroxides. As to the kind of experiment: Plasma lipid peroxides in nondiabetic elderly humans after 2-week supplementation (Example 4). In kind it is in vivo. To be noted: after 2-week oral supplementation. The procedure: as §1
Assay [3] relates to red cell GSH. Briefly: Red cell GSH concentration, FSR and ASR in diabetics after 2-week supplementation (Example 3). In kind it is in vivo, humans. To be noted: after 2-week dietary supplementation, Mean±SE. The procedure: (§2) Eight diabetics were studied before and after 2-week dietary supplementation with either n-acetylcysteine (NAC), glycine, or both. Subjects received infusions of ^2H2-glycine to measure the concentration, fractional synthetic rates (FSR) and absolute synthetic rates (ASR) of red cell GSH. Plasma ROOH and glucose levels were measured. Eight non-diabetic subjects were studied as controls.

In assay [4] the test system is lipid peroxides (ROOH). As to the kind of experiment: Plasma ROOH and glucose in diabetics after 2-week supplementation (Example 3). The note with it: after 2-week dietary supplementation. In kind it is in vivo, humans. The procedure:
as §2

Regarding `NCC(=O)O` [glycine], in assay [1], the GSH concentration is 1.21±0.27 mmol/L RBC and the GSH-ASR is 0.71 ± 0.05 mmol/L/day. Further, in assay [2], the “concentrations of lipid peroxides” value was 3.57±1.13 mmol/L ROOH.

Regarding `CC(=O)N[C@@H](CS)C(=O)O` [n-acetylcysteine], in assay [3], the “GSH ASR” value was found to be 0.93 ± 0.18 mmol/L/day, the “GSH FSR” value turned out to be 61±2 %/d and the GSH concentration came out at 1.61±0.15 mmol/LRBC. Also, in assay [4], the glycemia result was “remained unchanged”. In assay [4] (plasma), this compound had an ROOH concentrations of 5.78±0.78. Moreover, in assay [1], the GSH concentration is listed as 1.37±0.30 mmol/L RBC and the GSH-ASR is 0.92 ± 0.23 mmol/L/day. In addition, the “concentrations of lipid peroxides” value in assay [2] came to 3.22±1.29 mmol/L ROOH.

Source of the values: patent US9084760B2, “Increasing glutathione levels for therapy” (priority 2008, dated 2015).
